Values quoted from earlier work, collected in patent US20050060811A1, “Fabric care article and method for conserving energy” (The Procter & Gamble Company, priority 2000, published 2005).

Settings: not given

Row | SMILES | solubility in water
1 | ClC=CC[N+]12CN3CN(CN(C3)C1)C2.[Cl-] [Dowicil 200, 1-(3-Chlorallyl)-3,5,7-triaza-1-azoniaadamantane chloride] | freely soluble in water

Same assay, conditions: in water

Row | SMILES | water solubility
2 | O=[N+]([O-])C1(Br)COCOC1 [Bronidox L, 5-bromo-5-nitro-1,3-dioxane] | about 0.46%
3 | CC1(C)C(=O)N(CO)C(=O)N1CO [DMDM hydantoin, 1,3-bis(hydroxymethyl)-5,5-dimethyl-2,4-imidazolidinedione] | more than 50%
4 | CC(C)(O)C(Cl)(Cl)Cl [chlorobutanol, 1,1,1-Trichloro-2-methylpropan-2-ol] | about 0.8%
5 | [Na+].[O-][n+]1ccccc1[S-] [sodium pyrithione] | about 50%

Other lines, results leading:

Row | water solubility | SMILES
6 | about 2.67% | OCCOc1ccccc1 [2-phenoxyethanol]
7 | about 2% | OCCc1ccccc1 [2-phenylethanol]
8 | about 25% | O=[N+]([O-])C(Br)(CO)CO [Bronopol, 2-bromo-2-nitropropane-1,3-diol]
9 | about 4% | OCc1ccccc1 [benzyl alcohol]
10 | about 1.8% | [H]/N=C(\N/C(=N/[H])NCCCCCCNC(=N)NC(=N)Nc1ccc(Cl)cc1)Nc1ccc(Cl)cc1 [chlorhexidine diacetate, 1,1′-hexamethylene bis(5-(p-chlorophenyl)biguanide)]
11 | about 70% | [H]/N=C(\N/C(=N/[H])NCCCCCCNC(=N)NC(=N)Nc1ccc(Cl)cc1)Nc1ccc(Cl)cc1 [chlorhexidine digluconate, 1,1′-hexamethylene bis(5-(p-chlorophenyl)biguanide)]
